Experimental data taken from patent publication US4442044A, “Process for preparing monoesters and diesters of N-alkyl substituted amino methyl phosphonic acid” (priority 1983, dated 1984).

Assays:
Test in all cases: post-emergent herbicidal activity, greenhouse
Assay type in all cases: in vivo
Settings in all cases: Table I
[1] = test system: Barnyardgrass
Text: (§1) A good grade of top soil is placed in aluminum pans having holes in the bottom and compacted to a depth of 0.95 to 1.27 cm. from the top of the pan. A predetermined number of seeds of each of several dicotyledonous and monocotyledonous annual plant species and/or vegetative propagules for the perennial plant species were placed on the soil and pressed into the soil surface. The seeds and/or vegetative propagules are covered with soil and leveled. The pans are then placed on a sand bench in the greenhouse and watered from below as needed. After the plants reach the desired age (two to three weeks), each pan except for the control pans is removed individually to a spraying chamber and sprayed by means of an atomizer operating at a positive air pressure of approximately 1.46 kg/cm^2 absolute. The atomizer contains 6 ml. of a solution or suspension of the chemical. In that 6 ml., is an amount of a cyclohexanone emulsifying agent mixture to give a spray solution or suspension which contains about 0.4% by weight of the emulsifier. The spray solution or suspension contains a sufficient amount of the candidate chemical in order to give application rates corresponding to those set forth in the tables. The spray solution is prepared by taking an aliquot of a 1.0% by weight stock solution or suspension of the candidate chemical in an organic solvent such as acetone or tetrahydrofuran or in water. The emulsifying agent employed is a mixture comprising 35 weight percent butylamine dodecylbenzene sulfonate and 65 weight percent of a tall oil ethylene oxide condensate having about 11 moles of ethylene oxide per mole of tall oil. The pans are returned to the greenhouse and watered as before and the injury to the plants as compared to the control is observed at approximately two and four weeks as indicated in the tables under WAT and the results recorded. In some instances, the two-week observations are omitted.
(§2) The post-emergent herbicidal activity index used in Tables I and II is as follows: […]

[2] = test system: Canada Thistle
Text: as §1, §2

[3] = test system: Cocklebur
Text: as §1, §2

[4] = test system: Downy Brome
Text: as §1, §2

[5] = test system: Johnsongrass
Text: as §1, §2

[6] = test system: Lambsquarters
Text: as §1, §2

[7] = test system: Morningglory
Text: as §1, §2

[8] = test system: Quackgrass
Text: as §1, §2

[9] = test system: Smartweed
Text: as §1, §2

[10] = test system: Velvetleaf
Text: as §1, §2

[11] = test system: Yellow Nutsedge
Text: as §1, §2

Row | Structure (SMILES) | post-emergent herbicidal activity index ([1]; 4 WAT, 5.6 kg/h) | post-emergent herbicidal activity index ([1]; 4 WAT, 11.2 kg/h) | post-emergent herbicidal activity index ([2]; 4 WAT, 5.6 kg/h) | post-emergent herbicidal activity index ([2]; 4 WAT, 11.2 kg/h) | post-emergent herbicidal activity index ([3]; 4 WAT, 5.6 kg/h) | post-emergent herbicidal activity index ([3]; 4 WAT, 11.2 kg/h) | post-emergent herbicidal activity index ([4]; 4 WAT, 5.6 kg/h) | post-emergent herbicidal activity index ([4]; 4 WAT, 11.2 kg/h) | post-emergent herbicidal activity index ([5]; 4 WAT, 5.6 kg/h) | post-emergent herbicidal activity index ([5]; 4 WAT, 11.2 kg/h) | post-emergent herbicidal activity index ([6]; 4 WAT, 5.6 kg/h) | post-emergent herbicidal activity index ([6]; 4 WAT, 11.2 kg/h) | post-emergent herbicidal activity index ([7]; 4 WAT, 5.6 kg/h) | post-emergent herbicidal activity index ([7]; 4 WAT, 11.2 kg/h) | post-emergent herbicidal activity index ([8]; 4 WAT, 5.6 kg/h) | post-emergent herbicidal activity index ([8]; 4 WAT, 11.2 kg/h) | post-emergent herbicidal activity index ([9]; 4 WAT, 5.6 kg/h) | post-emergent herbicidal activity index ([9]; 4 WAT, 11.2 kg/h) | post-emergent herbicidal activity index ([10]; 4 WAT, 11.2 kg/h) | post-emergent herbicidal activity index ([11]; 4 WAT, 11.2 kg/h) | other results
1 | CCOC(=O)CNCP(=O)(OCCSC(=O)OCC)OCCSC(=O)OCC [Example 19, glycine, N-[[bis[2-[(ethoxycarbonyl)thio]ethoxy]-phosphinyl]methyl]-, ethyl ester] | 1 (25-49% control) | 2 (50-74% control) | 1 (25-49% control) | 2 (50-74% control) | 0 (0-24% control) | 2 (50-74% control) | 0 (0-24% control) | 0 (0-24% control) | 1 (25-49% control) | 2 (50-74% control) | 0 (0-24% control) | 0 (0-24% control) | 2 (50-74% control) | 2 (50-74% control) | 0 (0-24% control) | 1 (25-49% control) | 0 (0-24% control) | 1 (25-49% control) | 0 (0-24% control) | 1 (25-49% control) | post-emergent herbicidal activity index ([10]; 4 WAT, 5.6 kg/h): 0 (0-24% control); post-emergent herbicidal activity index ([11]; 4 WAT, 5.6 kg/h): 0 (0-24% control)
2 | CCOC(=O)CNCP(=O)(OC1CCCSC1)OC1CCCSC1 (stereo not shown) [Example 20, glycine, N-[[bis[(tetrahydro-2H-thiopyran-3-yl)-oxy]-phosphinyl]methyl]-, ethyl ester] |  | 1 (25-49% control) |  | 0 (0-24% control) |  | 0 (0-24% control) |  | 0 (0-24% control) |  | 0 (0-24% control) |  | 1 (25-49% control) |  | 1 (25-49% control) |  | 1 (25-49% control) |  | 0 (0-24% control) | 1 (25-49% control) | 0 (0-24% control) | post-emergent herbicidal activity index ([1]; 2 WAT, 5.6 kg/h): 0 (0-24% control); post-emergent herbicidal activity index ([2]; 2 WAT, 5.6 kg/h): 0 (0-24% control); post-emergent herbicidal activity index ([3]; 2 WAT, 5.6 kg/h): 0 (0-24% control); post-emergent herbicidal activity index ([4]; 2 WAT, 5.6 kg/h): 0 (0-24% control); post-emergent herbicidal activity index ([5]; 2 WAT, 5.6 kg/h): 0 (0-24% control); post-emergent herbicidal activity index ([6]; 2 WAT, 5.6 kg/h): 0 (0-24% control); post-emergent herbicidal activity index ([7]; 2 WAT, 5.6 kg/h): 0 (0-24% control); post-emergent herbicidal activity index ([8]; 2 WAT, 5.6 kg/h): 0 (0-24% control); post-emergent herbicidal activity index ([9]; 2 WAT, 5.6 kg/h): 0 (0-24% control); post-emergent herbicidal activity index ([10]; 2 WAT, 5.6 kg/h): 0 (0-24% control); post-emergent herbicidal activity index ([11]; 2 WAT, 5.6 kg/h): 0 (0-24% control)
3 | CCOC(=O)CNCP(=O)(OCc1ccco1)OCc1ccco1 [Example 21, glycine, N-[[bis(2-furanylmethoxy)phosphinyl]methyl]-, ethyl ester] |  | 0 (0-24% control) |  | 0 (0-24% control) |  | 0 (0-24% control) |  | 0 (0-24% control) |  | 0 (0-24% control) |  | 0 (0-24% control) |  | 1 (25-49% control) |  | 0 (0-24% control) |  | 0 (0-24% control) | 0 (0-24% control) | 0 (0-24% control) | post-emergent herbicidal activity index ([1]; 4 WAT, 56.0 kg/h): 2 (50-74% control); post-emergent herbicidal activity index ([2]; 4 WAT, 56.0 kg/h): 3 (75-99% control); post-emergent herbicidal activity index ([3]; 4 WAT, 56.0 kg/h): 2 (50-74% control); post-emergent herbicidal activity index ([4]; 4 WAT, 56.0 kg/h): 1 (25-49% control); post-emergent herbicidal activity index ([5]; 4 WAT, 56.0 kg/h): 0 (0-24% control); post-emergent herbicidal activity index ([6]; 4 WAT, 56.0 kg/h): 1 (25-49% control); post-emergent herbicidal activity index ([7]; 4 WAT, 56.0 kg/h): 2 (50-74% control); post-emergent herbicidal activity index ([8]; 4 WAT, 56.0 kg/h): 0 (0-24% control); post-emergent herbicidal activity index ([9]; 4 WAT, 56.0 kg/h): 1 (25-49% control); post-emergent herbicidal activity index ([10]; 4 WAT, 56.0 kg/h): 1 (25-49% control); post-emergent herbicidal activity index ([11]; 4 WAT, 56.0 kg/h): 1 (25-49% control)
4 | CCOC(=O)CNCP(=O)(OCC1CCCCO1)OCC1CCCCO1 (stereo not shown) [Example 23, glycine, N-[[bis(tetrahydro-2H-pyran-2-ylmethoxy)phosphinyl]methyl]-, ethyl ester] |  | 1 (25-49% control) |  | 0 (0-24% control) |  | 0 (0-24% control) |  | 0 (0-24% control) |  |  |  | 0 (0-24% control) |  | 1 (25-49% control) |  | 0 (0-24% control) |  | 1 (25-49% control) | 0 (0-24% control) | 0 (0-24% control) | post-emergent herbicidal activity index ([1]; 2 WAT, 5.6 kg/h): 0 (0-24% control); post-emergent herbicidal activity index ([2]; 2 WAT, 5.6 kg/h): 0 (0-24% control); post-emergent herbicidal activity index ([3]; 2 WAT, 5.6 kg/h): 0 (0-24% control); post-emergent herbicidal activity index ([4]; 2 WAT, 5.6 kg/h): 0 (0-24% control); post-emergent herbicidal activity index ([5]; 2 WAT, 5.6 kg/h): 0 (0-24% control); post-emergent herbicidal activity index ([6]; 2 WAT, 5.6 kg/h): 0 (0-24% control); post-emergent herbicidal activity index ([7]; 2 WAT, 5.6 kg/h): 0 (0-24% control); post-emergent herbicidal activity index ([8]; 2 WAT, 5.6 kg/h): 0 (0-24% control); post-emergent herbicidal activity index ([9]; 2 WAT, 5.6 kg/h): 0 (0-24% control); post-emergent herbicidal activity index ([10]; 2 WAT, 5.6 kg/h): 0 (0-24% control); post-emergent herbicidal activity index ([11]; 2 WAT, 5.6 kg/h): 0 (0-24% control)
5 | CCOC(=O)CNCP(=O)(O)OC(C)CC(=O)OCC (stereo not shown) [Example 25] | 1 (25-49% control) | 2 (50-74% control) | 0 (0-24% control) | 1 (25-49% control) | 0 (0-24% control) | 2 (50-74% control) | 0 (0-24% control) | 0 (0-24% control) | 1 (25-49% control) | 2 (50-74% control) | 0 (0-24% control) | 0 (0-24% control) | 1 (25-49% control) | 2 (50-74% control) | 0 (0-24% control) | 1 (25-49% control) | 0 (0-24% control) | 0 (0-24% control) | 1 (25-49% control) | 2 (50-74% control) | post-emergent herbicidal activity index ([10]; 4 WAT, 5.6 kg/h): 0 (0-24% control); post-emergent herbicidal activity index ([11]; 4 WAT, 5.6 kg/h): 0 (0-24% control)
